# Data from US11279708B2, “Amidino- and amino-rocaglates as novel translation inhibitors and anticancer agents” (priority 2019, dated 2022).
# Key:
# [1] = tested on: eIF4A-dependent translation; experiment: in vitro translation assay, bicistronic FF/HCV/Ren reporter mRNA in Krebs-2 extracts; assay type: biochemical; conditions: for IC50 / translation inhibition (in words): bicistronic FF/HCV/Ren mRNA; for IC50: FIG. 14/15, read-out: IC50, inhibition of cap-dependent translation (FF relative to REN)
# Description: Structure-Activity Relationships. With a number of amidino-rocaglates and amino-rocaglates in hand, we evaluated their inhibition of eIF4A-dependent translation using an in vitro assay as depicted in FIG. 14, where a bicistronic reporter mRNA was designed for translation in Krebs-2 extracts. In FIG. 14 the following description applies (a) IC50 was determined from fitted sigmoid curves; […] indicates the concentration of compound that inhibits cap-dependent translation by 50%, which was normalized by cap-independent translation. For its determination, the bicistronic reporter FF/HCV/Ren mRNA was used to produce Firefly luciferase (cap-dependent) and Renilla luciferase (cap-independent) in Krebs-2 extracts in the presence of indicated compounds at various concentrations. In particular, translation of Firefly luciferase (FF) is cap-dependent and depends on eIF4A activity; in contrast, translation of Renilla luciferase (REN) utilizes the HCV internal ribosome entry site (IRES) which functions independently of eIF4A. IC50's were determined by the inhibition of FF relative to REN obtained in the presence of compound relative to vehicle controls and normalized to REN as an internal control. […] In accordance with the eIF4A-RNA-rocaglamide (2) co-crystallographic analysis (FIG. 4), the amide carbonyl of 2 interacts with Gln195 of eIF4A as a H-bond acceptor, while the tertiary hydroxyl of 2 serves as a H-bond donor to an RNA base. […] To further verify the hypothesis, amidino-rocaglates (pKa of N—H˜26.7-30.7 in DMSO, strong H-bond donors) and amino-rocaglates (pKa of N—H˜36 to 44 in DMSO, weak H-bond donors) were next evaluated. […] Conversely, benzyl amidine 9e had IC50=60 nM, whereas the methylene tether may allow conformational adjustment to avoid rigid repulsion in the binding pocket.
# The rocaglate collection was also tested in in vitro translation assays using cell-free extracts with a previously described bicistronic mRNA containing the HCV IRES, which is not dependent on eIF4A activity and served as an internal control (FIG. 19C).
# (§1) In Vitro Translation Assays. In vitro translation assays performed in Krebs-2 cell extracts were supplemented with 5 mM MgCl2, 30 mM Tris-HCl (pH 7.5), 1.5 mM ATP, 0.1 mM GTP, 0.6 mM CTP, 10 mM dipotassium creatine phosphate, 80 μg/mL creatine kinase, and 0.04 mM amino acids. The specified mRNA reporters were added to each reaction at a final concentration of 10 ng/μL. The translation reactions were incubated with or without compound for 60 minutes at 30° C. prior to the measurement of luciferase activities.
# (§2) FIGS. 19A-19C. Rocaglate activity profiling. 19A. Assessing eIF4A1:poly r(AG)8 (SEQ ID NO: 2) RNA binding by FP in the presence of 10 μM rocaglate. Values are expressed relative to vehicle controls and data is rank ordered. n=3±SD. 19B. The change in polarization obtained with eIF4A1:poly r(AG)8 (SEQ ID NO: 2) and eIF4A2:poly r(AG)8 (SEQ ID NO: 2) RNA. Pearson r=0.814; p<0.0001. 19C. Inhibition of cap-dependent translation by rocaglates was measured using the indicated mRNA bicistronic reporter (4 ng/ul) in Krebs-2 extracts at a final compound concentration of 2 μM. n=3±SD.
# FIG. 35A-35E are plots showing dose-response curve of FF-HCV-Ren mRNA translation in Krebs extracts with IC50s shown for inhibition of cap-dependent protein synthesis. Values are plotted relative to DMSO controls. n=2 technical replicates performed in duplicate.
# [2] = tested on: cap-dependent translation; experiment: in vitro translation of (AG)10- and (UC)10-FF/HCV/Ren mRNA reporters in Krebs-2 extracts; assay type: biochemical; conditions: cap-proximal (AG)10 or (UC)10
# Description: Rocaglates show differing mRNA targeting spectra in translation assays. The in vitro experiments described above investigating the rocaglate-mediated inhibition of cap-dependent translation were performed at a fixed rocaglate concentration (2 μM) using a generic bicistronic mRNA reporter in Krebs-2 cell-free translation extracts (FIG. 19C). To better assess the consequences of eIF4A:polypurine clamping on the initiation process, we designed a series of bicistronic reporters harboring cap-proximal polypurine tracks of varying lengths in their 5′ leader region (FIG. 22A). […] We reasoned that these reporters would provide a sensitized readout for rocaglate-induce clamping of eIF4A at this location.
# We next tested the response of mRNA reporters containing cap-proximal (AG)10 or (UC)10 sequences (FIG. 22A). […] The difference in activity observed between CR-1-31-B (23) and silvestrol 1 was not restricted to cap-proximal polypurine tracks, but also observed with reporters where the polypurine/polypyrimidine tracks were situated 15 nt downstream from the cap (FIGS. 24A and 24B).
# as §1
# FIGS. 23A-23C. The presence of polypurines bases in mRNA 5′ leader regions are not universal predictors of rocaglate-responsiveness. FIG. 23A. Schematic diagram of FF/HCV/Ren mRNA reporters containing cap-proximal (AG) or (UC) dinucleotide repeats. 23B. Firefly and renilla luciferase activity in response to the indicated CR-1-31-B (23) concentrations (relative to DMSO controls) in Krebs-2 extracts programmed with 4 ng/uL of the indicated mRNAs. n=3±SD. 23C. Dose response of the indicated compounds in Krebs-2 extracts programmed with 4 ng/μL of the indicated mRNAs. n=3± SD.
# FIG. 23. Dose-response of (AG)10- and (UC)10-FF/HCV/Ren mRNAs to CMLD011167, hippuristanol and pateamine A in vitro. Firefly and renilla luciferase activity in response to the indicated compound concentrations (relative to DMSO controls) in Krebs-2 extracts programmed with 4 ng/μL of the indicated mRNAs. n=3± SD.
# HEK 293 cells = experiment: in cellula translation of transfected (AG)10- and (UC)10-FF/HCV/Ren mRNA; assay type: cell-based; conditions: compound added 1 h after mRNA transfection, 6 h exposure
# From the text: We next asked if differences in behavior among rocaglates towards the (AG)10- and (UC)10-reporters observed in vitro also extended in cellula (FIG. 26B). This was important since in cells, mRNA transcripts need to compete for components of the translation initiation machinery from a complex cellular mRNA pool and this scenario is difficult to recapitulate in experiments using cell-free extracts. Following mRNA transfections, cells were exposed to compound and luciferase activity determined.
# RNA Transfections. HEK 293 cells were transfected in a 24 well plate with 0.25 μg/well of in vitro synthesized capped m^7GpppG(AG)10-FF/HCV/Ren or m^7GpppG(UC)10FF/HCV/Ren mRNA and 1 h later were exposed to the indicated concentrations of compounds for an additional 6 h. Following this, extracts were prepared using passive lysis buffer (PLB, Promega) and luciferase activity measured on a Berthold Lumt LB 9507 luminometer.
# FIGS. 26A-26B. In cellula activity of rocaglates. 26A. Cytotoxicity of rocaglates towards NIH/3T3 (grey circle) and the NIH/3T3 rocaglate-resistant line, eIF4A^em1JP(redtriangle). Cells were exposed to 40 nM compound for 4 days and viability was measured using the SRB assay. n=3±SD. 26B. Rocaglates show different sequence preferences for inhibiting cap-dependent translation in cellula. HEK 293 cells were transfected with 0.5 μg of in vitro synthesized capped (AG)10-FF/HCV/Ren or (UC)10-FF/HCV/Ren mRNA and 1h later exposed to the indicated concentrations of compounds for an additional 6 h, at which time extracts were prepared and luciferase activity measured. n=3 SD.
# FIG. 28. In cellula dose-response of (AG)10- and (UC)10-FF/HCV/Ren mRNAs to hippuristanol and pateamine. Firefly and renilla luciferase activity in response to the indicated compound concentrations (relative to DMSO controls) following mRNA transfections in 293 cells. n=3±SD.
# eIF4A1:poly r(AG)8 RNA = biological target: T1, eIF4A1:poly r(AG)8 RNA (Homo sapiens, UniProt P60842); experiment: fluorescence polarization (FP) assay, eIF4A1 binding to FAM-labelled RNA; conditions: 500 nM eIF4A1, 10 nM FAM-labelled RNA, screen at 10 μM compound
# T1 construct: His6 (N); made in house; host or cells: E. coli BL21 (DE3)
# From the text: Rocaglates similarly enhance RNA binding of eIF4A1 and eIF4A2. In order to rapidly evaluate the ability of rocaglates to stimulate binding of eIF4A to RNA, a fluorescence polarization (FP) assay using a FAM (fluorescein amidite)-labelled RNA probe (FIG. 18A) was used. […] Due to the high degree of shared amino acid identity between the two paralogs, their apparent similarity with respect to RNA binding activity and response to CR-1-31-B (23), and the fact that eIF4A1 is essential but eIF4A2 is not, eIF4A1 was used in the majority of our subsequent experiments.
# Fluorescence Polarization (FP) Assays. Unless otherwise specified, eIF4A (500 nM) was incubated with 10 nM FAM-labelled RNA for 30 min in FP buffer (14.4 mM HEPES-NaOH (pH 8), 108 mM NaCl, 1 mM MgCl2, 14.4% glycerol, 0.1% DMSO, 2 mM DTT, 1 mM AMPPNP) at room temperature in black low volume 384 well plates (Corning 3820). FP readings were performed on a Pherastar FS microplate reader (BMG Labtech).
# as §2
# FIG. 21. Assessing stimulation of eIF4A1:RNA binding by rocaglates and pateamine. FAM-labelled RNA was incubated in the presence of 500 nM eIF4A1 and the indicated concentrations of compound for 30 min, after which time FP measurements were taken. Limitations in WGD-57-591 availability prevented us from extending the titrations to 100 μM. The change in FP obtained relative to vehicle controls is presented. n=3±SD. FP results of competition assays in which preformed eIF4A1:rocaglate:FAM-poly r(AG)10 complexes were incubated in the presence of poly r(AG)10 (SEQ ID NO: 39) and dissociation measured as a function of time. n=3±SD.
# T1 sequence (P60842 whole entry, species assumed): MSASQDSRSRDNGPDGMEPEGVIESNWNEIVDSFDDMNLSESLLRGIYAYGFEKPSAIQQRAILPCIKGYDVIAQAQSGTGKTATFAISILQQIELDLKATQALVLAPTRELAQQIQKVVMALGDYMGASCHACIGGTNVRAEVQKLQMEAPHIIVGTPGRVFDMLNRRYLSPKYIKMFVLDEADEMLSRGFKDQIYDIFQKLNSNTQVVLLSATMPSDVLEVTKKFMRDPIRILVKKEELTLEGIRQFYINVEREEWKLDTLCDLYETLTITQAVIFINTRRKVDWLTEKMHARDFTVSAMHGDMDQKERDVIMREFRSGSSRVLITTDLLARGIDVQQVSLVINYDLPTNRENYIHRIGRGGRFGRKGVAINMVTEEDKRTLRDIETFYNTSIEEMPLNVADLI
smiles,measurement,setting,value
COc1ccc([C@@]23Oc4cc(OC)cc(OC)c4[C@@]24NC(C)=N[C@@]4(O)[C@H](C(=O)N(C)OC)[C@H]3c2ccccc2)cc1 [9aa],IC50,[1],59 nM
CCCCC1=N[C@@]2(O)[C@H](C(=O)OC)[C@@H](c3ccccc3)[C@]3(c4ccc(OC)cc4)Oc4cc(OC)cc(OC)c4[C@]23N1 [9d],IC50,[1],187 nM
COC(=O)[C@@H]1[C@@H](c2ccccc2)[C@]2(c3ccc(OC)cc3)Oc3cc(OC)cc(OC)c3[C@@]23NC(Cc2ccccc2)=N[C@@]13O [9e],IC50,[1],60 nM
COC(=O)[C@@H]1[C@@H](c2ccccc2)[C@]2(c3ccc(OC)cc3)Oc3cc(OC)cc(OC)c3[C@@]23NC(C(C)(C)C)=N[C@@]13O [9f],IC50,[1],267 nM
COC(=O)[C@@H]1[C@@H](c2ccccc2)[C@]2(c3ccc(OC)cc3)Oc3cc(OC)cc(OC)c3[C@@]23NC(N)=N[C@@]13O [9j],IC50,[1],125 nM
COCC1=N[C@@]2(O)[C@H](C(=O)OC)[C@@H](c3ccccc3)[C@]3(c4ccc(OC)cc4)Oc4cc(OC)cc(OC)c4[C@]23N1 [9k],IC50,[1],64 nM
COc1ccc([C@@]23Oc4cc(OC)cc(OC)c4[C@@]24NC(C)=N[C@@]4(O)[C@H](C(=O)N(C)C)[C@H]3c2ccccc2)cc1 [9z],IC50,[1],63 nM
CONC(=O)[C@H]1[C@@H](O)[C@@]2(O)c3c(OC)cc(OC)cc3O[C@@]2(c2ccc(Br)cc2)[C@@H]1c1ccccc1 [SDS-1-021],inhibition of cap-dependent translation in vitro (in words),[1]; screen at 2 μM compound,the most potent compound
COCCN[C@]12c3c(OC)cc(OC)cc3O[C@@]1(c1ccc(OC)cc1)[C@H](c1ccccc1)[C@@H](C(=O)N(C)C)[C@H]2O [compound 18],translation inhibition (in words),[1],no translation inhibition
COCCN[C@]12c3c(OC)cc(OC)cc3O[C@@]1(c1ccc(OC)cc1)[C@H](c1ccccc1)C[C@@H]2O [compound 20],translation inhibition (in words),[1],no translation inhibition
COCCN[C@]12c3c(OC)cc(OC)cc3O[C@@]1(c1ccc(OC)cc1)[C@H](c1ccccc1)C[C@@H]2N [compound 22],translation inhibition (in words),[1],no translation inhibition
C[C@H]1C[C@@]2(O[C@H]3C[C@H]4[C@@H]5CC[C@H]6C[C@H](O)CC[C@]6(C)[C@H]5[C@@H](O)C[C@]4(C)[C@H]3[C@@]2(C)O)OC1(C)C [hippuristanol],inhibition of (AG)10 versus (UC)10 reporter in vitro (in words),[2],equally repressed cap-dependent translation from both
same,inhibition of (AG)10 versus (UC)10 reporter in cellula (in words),HEK 293 cells,inhibited both reporters equally
CC(/C=C/C(C)=C/[C@@H]1Cc2nc(cs2)[C@@H](C)C[C@@H](N)CC(=O)O[C@@H](C)C/C(C)=C/C=C\C(=O)O1)=C\CN(C)C [pateamine A],inhibition of (AG)10 versus (UC)10 reporter in vitro (in words),[2],equally repressed cap-dependent translation from both
same,stimulation of eIF4A1:RNA binding (in words),eIF4A1:poly r(AG)8 RNA,potently induced binding to all RNA substrates tested
same,inhibition of (AG)10 versus (UC)10 reporter in cellula (in words),HEK 293 cells,inhibited both reporters equally
